Experimental findings from paper PMC5706701, “Development of a homogenous high-throughput assay for inositol hexakisphosphate kinase 1 activity” (PLoS ONE, 2017) are described below.

The target of the assay is T1, Human IP6K1 (Homo sapiens, UniProt Q92551).
T1 construct: GST (N, cleaved yes); made in house; host or cells: C43 E. coli, pGEX-6P-2
As to the kind of experiment: IP6K1 high-throughput screen of the Sigma LOPAC (ADP-Glo Max, single point).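 Note: final compound concentration 10µM in 5% DMSO.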 The class given is biochemical. (In general: ADP-Glo turns the ADP formed in a reaction into a luminescent signal.)

Where [1] appears, read: LOPAC single-point screen, ADP-Glo Max raw signal per well.
Setting [2] is: LOPAC single-point screen, Z-score from raw signal with plate average and StDev.
The mark [3] stands for this setting: LOPAC single-point screen, ADP-Glo Max luminescence raw signal per well.
Setting [4] is: LOPAC single-point screen, Z-score from plate average and StDev.
The mark [5] stands for this setting: Sigma LOPAC single-point screen, ADP-Glo Max raw signal per well.
Setting [6] is: Sigma LOPAC single-point screen, Z-score from plate average and StDev.
[7] abbreviates: LOPAC single-point screen, Z-score against plate average and StDev.
[8] abbreviates: LOPAC single-point screen, Z-score relative to plate average and StDev.

Where a name gives a salt, the structure may show the parent alone. Read-outs that look alike come from different tables or passages of the source.

T1 sequence (Q92551 whole entry): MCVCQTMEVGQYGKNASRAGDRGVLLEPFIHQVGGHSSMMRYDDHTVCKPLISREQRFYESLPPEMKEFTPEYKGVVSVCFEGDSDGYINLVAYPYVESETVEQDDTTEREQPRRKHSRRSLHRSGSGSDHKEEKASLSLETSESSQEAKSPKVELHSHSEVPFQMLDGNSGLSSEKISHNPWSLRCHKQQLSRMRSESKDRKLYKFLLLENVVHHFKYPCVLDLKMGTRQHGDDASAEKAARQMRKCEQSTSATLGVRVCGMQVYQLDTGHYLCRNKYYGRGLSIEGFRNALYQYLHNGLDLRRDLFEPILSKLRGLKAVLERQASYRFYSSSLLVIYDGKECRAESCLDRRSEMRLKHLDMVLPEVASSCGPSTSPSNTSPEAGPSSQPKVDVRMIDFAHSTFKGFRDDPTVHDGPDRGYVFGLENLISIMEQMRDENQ

Take `COc1nc(C)nc(Cl)c1NC1=NCCN1.Cl` [Moxonidine hydrochloride]: the “Raw Signal” value under setting [1] is on record as 52362. Under setting [2], this compound returned a Z-score of -0.3413.

Consider `O=C(O)CN(CCN(CC(=O)O)CC(=O)O)CCN(CC(=O)O)CC(=O)O` [Diethylenetriaminepentaacetic acid], for which the “Raw Signal” value under setting [1] is 53021. Under setting [2], this compound displayed a Z-score of -0.4358.

With `CNCC[C@@H](Oc1ccc(C(F)(F)F)cc1)c1ccccc1.Cl` [R-(-)-Fluoxetine hydrochloride], under setting [3], the “Raw Signal” value was 63921. Under setting [4], the Z-score is listed as 1.778.

Turning to `CNC(=O)Oc1ccc2c(c1)[C@]1(C)CCN(C)[C@@H]1N2C` [(-)-Physostigmine], the “Raw Signal” value under setting [3] is 62569. The compound also had a Z-score under setting [4] of 1.503.

As for `CC(C)NNC(=O)c1ccncc1.O=P(O)(O)O` [Iproniazid phosphate], the “Raw Signal” value under setting [5] is 60567. Also, the Z-score under setting [6] is 1.037.

For the compound `c1ccc2cc(-c3ncc[nH]3)ccc2c1` [Benazoline oxalate], the “Raw Signal” value under setting [5] is recorded as 61441. Further, the Z-score under setting [6] is 0.6214.

For the compound `CCN(CC)C(C)C(=O)N1c2ccccc2Sc2ccccc21.Cl` (stereo not drawn), the “Raw Signal” value under setting [1] amounted to 55206. The Z-score under setting [7] is 0.007914.

Turning to `O=C(Nc1cc(C(=O)Nc2ccc(S(=O)(=O)[O-])cc2S(=O)(=O)[O-])cc(C(=O)Nc2ccc(S(=O)(=O)[O-])cc2S(=O)(=O)[O-])c1)Nc1cc(C(=O)Nc2ccc(S(=O)(=O)[O-])cc2S(=O)(=O)[O-])cc(C(=O)Nc2ccc(S(=O)(=O)[O-])cc2S(=O)(=O)[O-])c1.[Na+].[Na+].[Na+].[Na+].[Na+].[Na+].[Na+].[Na+]` [NF449 octasodium salt], the “Raw Signal” value under setting [3] turned out to be 9787. Besides, under setting [8], the Z-score is on record as -7.495.

In the case of `N.S=C(S)N1CCCC1` [Ammonium pyrrolidinedithiocarbamate], the “Raw Signal” value under setting [5] is given as 60867. The compound further came in with a Z-score under setting [6] of 0.9409.

Turning to `COc1ccccc1N1CCN(CCN(C(=O)C2CCCCC2)c2ccccn2)CC1.O=C(O)/C=C\C(=O)O` [WAY-100635 maleate], under setting [1], the “Raw Signal” value is recorded as 54317. Besides, under setting [2], the Z-score was -0.3316.

For the compound `NC(CO)C(=O)NNCc1ccc(O)c(O)c1O` (stereo not drawn) [Benserazide hydrochloride], the “Raw Signal” value under setting [3] was found to be 50551. For the same compound, under setting [8], the Z-score is recorded as -1.297.

For the compound `CN1CCN(CC(=O)N2c3ccccc3C(=O)Nc3cccnc32)CC1` [Pirenzepine dihydrochloride], the “Raw Signal” value under setting [5] is given as 62871. The same compound showed a Z-score under setting [6] of 1.33.

Turning to `CCn1c(=O)c2nc(-c3ccccc3)[nH]c2n(CC)c1=O` [1,3-Diethyl-8-phenylxanthine], the “Raw Signal” value under setting [1] came out at 56931. Under setting [2], the Z-score is listed as -0.173.

For the compound `C#CCOC(=O)C1=CCCN(C)C1` [Arecaidine propargyl ester hydrobromide], the “Raw Signal” value under setting [1] was found to be 56259. The compound also came in with a Z-score under setting [2] of -0.2913.

Regarding `Cc1nc(N=Nc2ccc(C(=O)O)cc2)c(COP(=O)(O)O)c(C=O)c1O` [MRS 2159], the “Raw Signal” value under setting [3] is reported as 51283. The Z-score under setting [8] was -0.5226.

In the case of `CO[C@@]1(NC(=O)CSCC#N)C(=O)N2C(C(=O)O)=C(CSc3nnnn3C)CS[C@@H]21` [Cefmetazole sodium], the “Raw Signal” value under setting [3] is 53279. The same compound registered a Z-score under setting [8] of -0.8162.

As for `N=C(N)NC(=O)c1nc(Cl)c(N2CCCCCC2)nc1N` [5-(N,N-hexamethylene)amiloride], the “Raw Signal” value under setting [1] was 56870. This compound also displayed a Z-score under setting [2] of -0.1837.

Turning to `CC[C@H](CO)Nc1nc(NCc2ccccc2)c2ncn(C(C)C)c2n1` [Roscovitine], under setting [1], the “Raw Signal” value is given as 54754. The compound also displayed a Z-score under setting [2] of -0.2467.

As for `CC(C)NC[C@@H](O)c1ccc(O)c(O)c1.O=C(O)C(O)C(O)C(=O)O` [S(+)-Isoproterenol (+)-bitartrate], the “Raw Signal” value under setting [1] was determined as 55551. The compound further returned a Z-score under setting [7] of 0.1945.

With `N#CC(C#N)=Cc1ccc([N+](=O)[O-])c(O)c1` [Tyrphostin AG 126], the “Raw Signal” value under setting [3] amounted to 65028. For the same compound, the Z-score under setting [4] was 1.749.

With `CN(C)C(=O)N=NC(=O)N(C)C` [N,N,N ,N -Tetramethylazodicarboxamide], under setting [5], the “Raw Signal” value is on record as 57249. Also, the Z-score under setting [6] is on record as 0.4228.

In the case of `Cl.O=C(Cc1ccc(Cl)c(Cl)c1)N1CCCCC1CN1CCCC1` (stereo not drawn) [BRL 52537 hydrochloride], the “Raw Signal” value under setting [1] is recorded as 55058. Moreover, under setting [2], the Z-score is reported as -0.1876.

As for `CCCCCCCCCCCCCCCC(=O)NCC(COP(=O)([O-])OCC[N+](C)(C)C)OCC` (racemic), the “Raw Signal” value under setting [3] came to 63126. The Z-score under setting [4] was found to be 1.616.

Take `O=C1CC[C@@]2(O)[C@H]3Cc4ccc(O)c5c4[C@@]2(CCN3CC2CC2)[C@H]1O5` [Naltrexone hydrochloride]: the “Raw Signal” value under setting [1] came to 52231. The compound further had a Z-score under setting [2] of -0.3634.

Regarding `Cl.O=C(O)C1CCCN(CCC=C(c2ccccc2)c2ccccc2)C1` (stereo not drawn) [SKF 89976A hydrochloride], the “Raw Signal” value under setting [1] turned out to be 57225. Besides, the Z-score under setting [7] amounted to 0.2334.

In the case of `C[C@]12CC[C@@H](O)C[C@@H]1CC[C@@H]1[C@@H]2CC[C@]2(C)C(=O)CC[C@@H]12` [Androsterone], the “Raw Signal” value stood at 54396 and the Z-score is -0.6195.

Consider L-Methionine sulfoximine, for which the “Raw Signal” value turned out to be 58334 and the Z-score was found to be 0.6621.

Regarding `N[C@@H](Cn1ccc(=O)[nH]c1=O)C(=O)O` [S(-)-Willardiine], the “Raw Signal” value under setting [1] amounted to 55281. This compound also displayed a Z-score under setting [2] of -0.1443.

With `O=C1NC(=O)C(c2ccccc2)(c2ccccc2)N1` [5,5-Diphenylhydantoin], under setting [1], the “Raw Signal” value is reported as 54091. This compound returned a Z-score under setting [2] of -0.2185.

Turning to `Clc1cnc(Oc2ccc(Oc3ncc(Cl)cc3Cl)cc2)c(Cl)c1` [TCPOBOP], the “Raw Signal” value under setting [1] came out at 54822. The compound also gave a Z-score under setting [2] of -0.2335.

As to `Cl.O=C(CCCN1CCC2(CC1)C(=O)N(CCc1ccc(N=C=S)cc1)CN2c1ccccc1)c1ccc(F)cc1`, the “Raw Signal” value under setting [1] worked out at 54409. Under setting [7], this compound gave a Z-score of 0.002603.

In the case of `CCCCNc1cc(C(=O)O)cc(S(N)(=O)=O)c1Oc1ccccc1` [Bumetanide], under setting [5], the “Raw Signal” value was found to be 62300. Moreover, the Z-score under setting [6] is on record as 0.7727.

In the case of `CCCC(C(=O)OCCN(CC)CC)(c1ccccc1)c1ccccc1.Cl` [SKF-525A hydrochloride], the “Raw Signal” value under setting [3] was 51241. Moreover, the Z-score under setting [8] is -0.5297.

With `O=c1c2ccccc2[se]n1-c1ccccc1` [Ebselen], under setting [1], the “Raw Signal” value was 54986. For the same compound, the Z-score under setting [7] is listed as -0.03677.

Regarding `COC(=O)c1c(C)[nH]c(C)c1C(=O)c1ccccc1Cc1ccccc1` [FPL 64176], the “Raw Signal” value under setting [1] was 56544. Also, the Z-score under setting [7] came to 0.2796.

For `COc1ccc(CNC(=O)/C=C/c2ccc3[nH]cc(CCN(C)C)c3c2)cc1` [GR 4661], the “Raw Signal” value under setting [3] is 54448. The same compound showed a Z-score under setting [8] of -0.6103.

For `N[C@@H](Cc1ccc(N(CCCl)CCCl)cc1)C(=O)O` [Melphalan], the “Raw Signal” value under setting [5] came to 56974. For the same compound, the Z-score under setting [6] is 0.4336.

Consider `Cc1nnc2ccc(-c3cccc(C(F)(F)F)c3)nn12`, for which the “Raw Signal” value under setting [1] came to 54310. Under setting [7], the Z-score is given as -0.01403.

In the case of `O=C(O)c1cc[c]([Hg][Cl])cc1` [4-Chloromercuribenzoic acid], the “Raw Signal” value under setting [1] was determined as 56908. The Z-score under setting [2] was -0.177.
